Measurements reported in patent publication US20260132123A1, “ABAD INHIBITOR COMPOUNDS” (UNIVERSITY COURT OF THE UNIVERSITY OF ST ANDREWS, priority 2021, published 2026).

Molecular target: T1, 17β-HSD10 (Homo sapiens, UniProt Q99714)
T1 construct: Histev (histidine tag with TEV site) (N, cleaved yes); made in house; host or cells: E. coli BL21-CodonPlus
T1 sequence (Q99714 1-261): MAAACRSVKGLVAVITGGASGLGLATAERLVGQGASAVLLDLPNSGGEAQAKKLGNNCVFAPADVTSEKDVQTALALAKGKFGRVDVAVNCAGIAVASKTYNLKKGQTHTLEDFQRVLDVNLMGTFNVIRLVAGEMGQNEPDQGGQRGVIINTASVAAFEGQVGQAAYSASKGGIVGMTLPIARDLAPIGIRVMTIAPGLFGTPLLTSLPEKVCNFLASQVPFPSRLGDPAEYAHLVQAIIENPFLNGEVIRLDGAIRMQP
Experiment: 17β-HSD10 (ABAD) enzyme inhibition assay, NADH oxidation read at 340 nm (primary screen and dose response)
Format: biochemical
Conditions: for EC50 / Max. Effect (%) / Hill Slope / Max. Fit / Min. Fit: recombinant 17βHSD10 enzyme assay; for Hill Slope / Max. Fit / Min. Fit: curve fit
Method: Cell pellets of E. coli BL21-CodonPlus cells containing Histev-17β-HSD10 protein were re-suspended for 30 min, 4° C., in lysis buffer (20 mM NaH2PO4, 30 mM imidazole, 500 mM NaCl, 10% (v/v) glycerol, pH 7.5) with the addition of complete ethylenediaminetetraacetic acid (EDTA)-free protease inhibitor tablets (Roche), lysozyme (1 mg/mL), deoxyribonuclease (DNase) (20 μg/mL) and Triton X-100 (0.1% (v/v)). Cells were lysed by passage through a cell disruptor at 30 kPSI (Constant Systems Ltd) and the lysate was cleared by centrifugation (Sorvall Evolution RC, rotor S5-34 55-34 angle, 20500 rpm, 30 min, 4° C.). Cleared lysate was filtered (0.45 μm membrane; Whatman) then applied to a Ni-nitrilotriacetic acid (NTA) (GE Healthcare) column pre-washed with lysis buffer and protein eluted with 300 mM imidazole buffer (20 mM NaH2PO4, 300 mM imidazole, 500 mM NaCl, 10% (v/v) glycerol, pH 7.5). […] Protein digestion and dialysis was carried out at 4° C. for 16 h.
Complete digestion was firstly checked by sodium dodecyl sulfate-polyacrylamide gel electrophoresis (SDS-PAGE), then fully digested protein was passed over a second Ni-column and the flow-through, containing 17β-HSD10 protein, was concentrated using a Vivaspin column (10 kDa MWCO, GE Healthcare) to ˜7 mL before final purification using gel filtration to remove imidazole (Hi-Load 16/60 Superdex 75 prep grade column, GE Healthcare, flow rate 1.5 mL/min). Protein was eluted in gel filtration buffer (10 mM trisaminomethane (Tris-HCl), 150 mM NaCl, 10% glycerol, pH 7.5) and concentrated (Vivaspin column (10 kDa molecular weight cut off (MWCO), GE Healthcare)) to 10 mg/mL. Aliquots (10 μL) were taken and flash frozen in liquid nitrogen before final storage at −80° C.
The assay buffer used contains: 10 mM Tris. HCl (pH 7.4), 150 mM NaCl, 1 mM DTT, 0.005% Tween (polysorbate 20) and 0.01% bovine serum albumin (BSA). As indicated for some experiments the assay buffer was supplemented with 100 units/ml bovine liver catalase. All experiments were conducted in clear bottom 384-well or 1536-well low volume microplates (Corning) with a final assay volume of 20 μL and the reaction progress was monitored by oxidation of NADH as determined by reduction in absorbance at 340 nm read on the EnVision plate reader (PerkinElmer).
For primary screening an endpoint assay format was adopted in which an Echo acoustic liquid dispenser (Labcyte) was used to transfer 20 nL of either reference standard, dimethylsulfoxide (DMSO) control ([…] final assay concentration (FAC)) or test compounds (10 μM FAC) to the assay plate. 10 μL of 17β-HSD10 enzyme in assay buffer (2.5 nM, FAC) was then added to the plates using the Preddator liquid handling robot (Redd and Whyte) and plates were incubated at room temperature for 15 minutes. 10 μL of substrate mixture (100 μM acetoacetyl-CoA and 100 μM NADH, FAC) was added with the Preddator. To start the reaction and the plates were left to incubate for 35 minutes at room temperature before the absorbance at 340 nm was read on the EnVision plate reader (PerkinElmer). For kinetic assay format and dose response follow up experiments the same protocol was adopted but the absorbance at 340 nm was monitored constantly for 45 minutes from immediately after the reaction was started.

Row | SMILES | EC50 [µM] | Max. Effect (%) | Hill Slope | Max. Fit | Min. Fit | 17β-HSD10 / ABAD activity in words (SAR discussion) | ABAD plC50 (primary screening, resynthesized HTS hit compounds)
1 | CC(C)CN(C(=O)c1ccccc1F)c1cccc(N(C)CCO)c1 [ESC1002577] | 8.13 | 72 | 0.95 | 100 | −1 | – | –
2 | O=C(c1sccc1Cl)N1CCCC1c1ccccc1-c1cccc(O)c1 (racemic) [ESC1002666, (3-chlorothiophen-2-yl)(2-(3′-hydroxy-[1,1′-biphenyl]-2-yl)pyrrolidin-1-yl)methanone] | 0.0589 | 99 | 1.1 | 98 | 0 | – | –
3 | CCCCN(C(=O)c1ccccc1F)c1cccc(N(C)Cc2c[nH]cn2)c1 [ESC1002508, N-butyl-2-fluoro-N-[3-[1H-imidazol-4-ylmethyl(methyl)amino]phenyl]benzamide] | 1.55 | 92 | 1.2 | 96 | 0 | – | –
4 | COc1cccc(-c2ccccc2[C@@H]2CCCN2C(=O)c2snc(Cl)c2Cl)c1 (racemic) [ESC1002627] | > 20 | 5 | – | – | – | – | –
5 | COc1cccc(-c2ccccc2[C@H]2CCCN2C(=O)c2sccc2C)c1 (single isomer, unassigned) [ESC1002420] | > 20 | 28 | – | – | – | – | –
6 | O=C(c1sccc1Cl)N1CCC[C@H]1c1ccccc1-c1cc(O)cc(F)c1 (racemic) [ESC1002776] | 0.0407 | 99 | 1 | 96 | −1 | – | –
7 | O=C(c1sccc1Cl)N1CCC[C@H]1c1ccccc1-c1cccc(O)c1 (single isomer, unassigned) [ESC1002754] | > 20 | 20 | – | – | – | – | –
8 | COc1cc(-c2ccccc2[C@@H]2CCCN2C(=O)c2sccc2Cl)ccn1 (racemic) [ESC1002665] | 0.603 | 95 | 1 | 97 | −3 | – | –
9 | Cc1ccsc1C(=O)N1CCC[C@@H]1c1ccccc1-c1c[nH]nc1C [ESC1002464] | 2.04 | 84 | 1.1 | 91 | −5 | – | –
10 | COc1cccc(-c2ccccc2[C@@H]2CCCN2C(=O)c2cn[nH]c2)c1 (racemic) [ESC1002601] | 6.31 | 82 | 0.74 | 115 | −7 | – | –
11 | O=C(c1sccc1Cl)N1CCC[C@H]1c1ccccc1-c1ccnc(O)c1 (racemic) [ESC1002697] | > 20 | 43 | – | – | – | less active | –
12 | O=C(c1[nH]ncc1Cl)N1CCC[C@H]1c1ccccc1-c1cccc(O)c1 (single isomer, unassigned) [ESC1002798] | > 20 | 18 | – | – | – | – | –
13 | CC(C)CN(C(=O)c1ccncc1)c1cccc(N(C)Cc2cnc[nH]2)c1 [ESC1002034, N-[3-[1H-imidazol-5-ylmethyl(methyl)amino]phenyl]-N-isobutyl-pyridine-4-carboxamide] | 1.58 | 92 | 0.8 | 106 | −3 | – | 5.8
14 | CC(C)CN(C(=O)c1ccccc1S(C)(=O)=O)c1cccc(N(C)Cc2c[nH]cn2)c1 [ESC1002622] | 6.92 | 76 | 0.9 | 108 | −6 | – | –
15 | CC(C)CN(C(=O)c1ccc(C(F)(F)F)cc1F)c1cccc(N(C)Cc2c[nH]cn2)c1 [ESC1002455, 2-fluoro-N-[3-[1H-imidazol-4-ylmethyl(methyl)amino]phenyl]-N-isobutyl-4-(trifluoromethyl)benzamide] | 1.26 | 92 | 0.99 | 97 | −7 | – | –

The next lines start with results.

Row | EC50 [µM] | Max. Effect (%) | Hill Slope | Max. Fit | Min. Fit | 17β-HSD10 / ABAD activity in words (SAR discussion) | SMILES | ABAD plC50 (primary screening, resynthesized HTS hit compounds)
16 | > 20 | 45 | – | – | – | – | CC(C)CN(C(=O)c1cnccn1)c1cccc(N(C)Cc2c[nH]cn2)c1 [ESC1002656, N-[3-[1H-imidazol-4-ylmethyl(methyl)amino]phenyl]-N-isobutyl-pyrazine-2-carboxamide] | –
17 | 1.07 | 98 | 1 | 103 | −10 | – | Cn1cc(-c2ccccc2[C@@H]2CCCN2C(=O)c2sccc2Cl)cn1 (racemic) [ESC1002704] | –
18 | 1.26 | 91 | 0.91 | 98 | −9 | less active | O=C(c1sccc1Cl)N1CCC[C@H]1c1ccccc1-c1cccc2[nH]ncc12 (racemic) [ESC1002702] | –
19 | > 20 | 10 | – | – | – | – | O=C(c1sccc1Cl)N1CCC[C@H]1c1ccccc1-c1cc(O)cc(F)c1 (single isomer, unassigned) [ESC1002800] | –
20 | > 20 | 3 | – | – | – | – | COc1cccc(-c2ccccc2[C@H]2CCCN2C(C)c2ccccc2)c1 (some centres unmarked) [ESC1002505] | –
21 | > 20 | 1 | – | – | – | – | CN(Cc1cncn1C(=O)OC(C)(C)C)c1cccc(NC(=O)c2ccccc2F)c1 [ESC1002055] | –
22 | 5.62 | 77 | 1.1 | 93 | 0 | – | CC(C)CN(C(=O)c1ccccc1F)c1cccc(N(C)Cc2c[nH]cn2)n1 [ESC1002795] | –
23 | 9.33 | 64 | 0.94 | 100 | −6 | – | CC(C)CN(C(=O)c1ccccc1F)c1cccc(NCc2c[nH]cn2)c1 [ESC1002631] | –
24 | 0.977 | 94 | 0.75 | 104 | −8 | – | CC(C)CN(C(=O)c1ccccc1C(F)(F)F)c1cccc(N(C)Cc2c[nH]cn2)c1 [ESC1002493, N-[3-[1H-imidazol 4-ylmethyl(methyl)amino]phenyl]-N-isobutyl-2-(trifluoromethyl)benzamide] | –
25 | 0.155 | 96 | 0.98 | 96 | −2 | – | Cc1ccsc1C(=O)N1CCC[C@H]1c1ccccc1-c1ccccc1Cl (single isomer, unassigned) [ESC1002767] | –
26 | > 20 | 45 | 0.93 | 100 | −3 | further losses in potency | CC(C)CN(C(=O)c1ccccc1F)c1cccc(N(C)Cc2c[nH]c(C(C)C)n2)c1 [ESC1002633] | –
27 | 0.049 | 100 | 1.2 | 96 | 0 | – | O=C(c1sccc1Cl)N1CCC[C@H]1c1ccccc1-c1ccc(F)c(O)c1 (racemic) [ESC1002775] | –
28 | > 20 | 43 | – | – | – | – | COc1cccc(-c2ccccc2[C@@H]2CCCN2C(=O)C23CC(C2)C3)c1 (racemic) [ESC1002602] | –
29 | 1.51 | 87 | 1.2 | 90 | −2 | – | Cc1ccsc1C(=O)N1CCC[C@@H]1c1ccccc1-c1c[nH]nc1C(F)(F)F [ESC1002465] | –
